Results: paper PMC12844124, “Synthesis and Study of Substituted Chalcones Combined with Fluoroazobenzenes—New Photoswitches for Application in Biological Systems” (Molecules, 2026)

Columns and labels:
[1] = system: BJ fibroblasts; test: Cell cycle analysis by flow cytometry, BJ fibroblasts; type: cell-based, human; conditions: Z conformer, concentration not given
Method: The BJ or PC-3 cells were treated as described previously, with the exception that 0.15 × 10^6 cells per well were seeded in 6-well plates. After 24 h of treatment, cells were harvested by trypsinization (Biowest, Nuaillé, France, L0931), washed twice, resuspended in PBS, and added to cold 70% ethanol for overnight fixation at −20 °C. Subsequently, cells were centrifuged and resuspended in PBS containing 5 µg/mL of propidium iodide in PBS (Sigma-Aldrich, St. Louis, MO, USA, 4170), 0.1% Triton X-100, and 10 µg/mL of DNAse-free RNAse (A&A Biotechnology, Gdansk, Poland, 1006-10) in the dark for 4 h at 37 °C. FACS analysis was performed using a FACSCanto II flow cytometer and FACSDiva, version 9.0 software (BD Biosciences, San Jose, CA, USA). Flow rate was set to about 1000 events/cells per second. Signals from at least 10,000 events per sample were captured. The percentages of PC-3 cells in cell cycle phases (G0/G1, S, and G2/M) were determined using ModFit LT 4.1.7 (Verity Software House, Topsham, ME, USA).

[2] = system: BJ fibroblasts; test: MTS cell proliferation assay, BJ fibroblasts; type: cell-based, human; conditions: for IC50: Homo sapiens, Fibroblast
Method: Human BJ fibroblasts (American Type Cell Culture Collection, Manassas, VA, USA, CRL-2522) and human prostate cancer cell line PC-3 (American Type Cell Culture Collection, Manassas, VA, USA, CRL-1435), derived from bone metastases, were routinely grown in […]) Medium (ThermoFisher, Waltham, MA, USA, 21127-022) and supplemented with heat-inactivated 10% Fetal Bovine Serum (Biowest, France, […]) and 1% antibiotic solution (Biowest, Nuaillé, France, L0022), in a humidified 5% CO2 atmosphere at 37 °C. Cells were used between 3 and 20 passages. The 96-well plates were prepared by seeding 5 × 10^3 or 2.5 × 10^3 cells per well, for 24 and 48 h treatments, respectively, with at least five technical and two biological repeats. […] The cells were treated with either the Z conformer of 17j, with continuous illumination with 525 nm light, or the E conformer. The Z conformer was prepared by illuminating its DMSO solution with 525 nm light overnight. The cell proliferation was analyzed with CellTiter Aqueous One Solution Cell Proliferation MTS (3-(4,5-dimethylthiazol-2-yl)-5-(3-carboxymethoxyphenyl)-2-(4-sulfophenyl)-2H-tetrazolium) Assay (Promega, Madison, WI, USA, G5430) after 24 or 48 h of treatment. The absorbance was measured at 490 and 670 nm with FLUOStar Omega plate reader (BMG LABTECH GmbH, Ortenberg, Germany). The statistical analysis was performed within R 4.5.1 project. […] The log-logistic four parametric model (4PL), with the lower limit boundary set to 0 and group fitting, was used, as available in the drc package, to fit cell proliferation data. The residuals were checked for normality with QQ and density plots and considered as sufficiently normally distributed. The assessment metrics for model goodness of fit were performed with functions available in the drc package and with custom ones. When appropriate, the delta method was applied to obtain error of central tendency. To assess the goodness of fit for each of the biological replicates, deviance R^2 (DR^2) was calculated and assessed. […] The DR^2 was calculated according to the following Equation: 1 - (Dres/Dnull), where Dres-residual deviance and Dnull-null deviance (deviance of the model with mean as a predicted value). The null hypothesis was assessed with the two-way ANOVA with Tukey's post hoc test for multiple comparisons or with the two-way t-test when only two groups were compared. The differences in the cell cycle percentages were assessed with the two-way ANOVA with Tukey's post hoc test.

[3] = Changes over time of Z to E transition by 19F NMR; type: physicochemical; conditions: light 525 nm, 100 mM in DMSO
From the text: We can observe that for electromagnetic radiation in the range of wavelengths 390 nm to 610 nm, transitions from E to Z of about 0–76% are obtained. The best results for all compounds are in visible wavelengths 505 nm or 525 nm (30.59–75.44%). From analyzing Figure 2 we can draw the following conclusions: all synthesized compounds undergo switching under visible light (this is important because UV radiation can damage the DNA of cells, inhibiting replication and, as a result, preventing cell division). For the 2,6-difluoro substituents (17i), (17j), (17k), and (17l) with values of 74.84%, 73.2%, 74.39%, and 75.44%, respectively, the largest share of the Z configuration is at (525 nm) and, for the rest of (17a), (17b), (17c), (17e), (17f), and (17g), it is in range of 30.57–47.13% at 505 nm. […] Multiple cycles of photoreversible switching under alternating green and blue light irradiation, with no significant photobleaching or degradation, confirmed the repeatable and robust photochromic conversion of the synthesized azobenzenes (Figure 2b). Then we measured changes over time (transitions from Z to E, upon irradiation with 505 nm for (17a–17c) and (17e–17g), and 525 nm for (17i–17l) compounds (Figure 3, and see Section S4.3 in Supplementary Materials).

[4] = UV–VIS spectra of E/Z isomers in DMSO; type: physicochemical
Method: For this purpose, the UV–VIS spectra were measured for all synthesized hybrids (17a–17l) at concentrations from 20 to 500 µM in dimethyl sulfoxide (DMSO) in light at λ 505 nm and for (17a–17c), (17e–17g), and (17i–17l) at λ 525 nm, respectively, as detailed in Table 1 (see Section S4.4 in Supplementary Materials).

## COc1cc(/C=C/C(=O)c2cccc(/N=N/c3c(F)cccc3F)c2)cc(OC)c1 [Compound 17j]
[1]; decrease from 86.4
  cells undergoing the G0/G1 phase: 51.5%
[1]; increase from 0.4
  cells in the S phase: 8%
[1]; increase from 11.9
  cells in the G2/M phase: 15.6%
[2]; E conformer, 48 h
  growth inhibition (normalized asymptote): 5.3 ± 1.2%
[2]; 24 h, E conformer, 24 h treatment
  IC50: 6.59 ± 0.38 µM
[2]; 24 h, Z conformer, 24 h treatment
  IC50: 10.1 ± 1.4 µM
[2]; 48 h, E conformer, 48 h treatment
  IC50: 2.66 ± 0.15 µM
[2]; 48 h, Z conformer, 48 h treatment
  IC50: 4.02 ± 0.39 µM
[2]; Z conformer, 24 h
  growth inhibition (normalized asymptote): 18.7 ± 9.7%
[2]; Z conformer, 48 h
  growth inhibition (normalized asymptote): 13.3 ± 6.1%
[3]; 0 h
  Z isomer, changes over time: 73.2%
[3]; 1 h
  Z isomer, changes over time: 72.55%
[3]; 2 h
  Z isomer, changes over time: 71.89%
[3]; 3 h
  Z isomer, changes over time: 71.23%
[3]; 4 h
  Z isomer, changes over time: 71%
[3]; 5 h
  Z isomer, changes over time: 70.01%
[3]; 6 h
  Z isomer, changes over time: 69.58%
[3]; 7 h
  Z isomer, changes over time: 69.12%
[3]; 8 h
  Z isomer, changes over time: 67.9%
[3]
  Δ (Z to E change 0 h to 8 h): 5.3%
[4]; E isomer
  εmax (n→π*): 922 dm^3·mol^−1·cm^−1
  λmax n→π* (E): 448.3 nm
[4]; Z isomer
  εmax (n→π*): 1130 dm^3·mol^−1·cm^−1
  λmax n→π* (Z): 417.4 nm
[4]; between E and Z isomers
  Δ λmax n→π*: 30.9 nm
